In patent US6124306A, “Thioalkyl alpha substituted pyrimidine compounds” (Pharmacia & Upjohn Company, priority 1998, dated 2000):

Legend:
IIIB-WT = experiment: Antiviral activity in MT4 cells, HIV-1 p24 core antigen quantitation; assay type: cell-based; details: Human immunodeficiency virus 1, IIIB, 96 h, infection 0.001-0.005 TCID50 per cell, p24 antigen at four days post-infection, concentration inhibiting 90% of p24 production
Description: (§1) Assessment of the antiviral activities of the Compounds 1 and 290 versus the panel of viruses used in these studies was carried out in MT4 cells. Cells were batch infected with the appropriate virus stock at a multiplicity of infection of 0.001-0.005 TCID50 per cell for 2 hours at 37° C. The cells were washed, resuspended in RPMI/FBS and plated in 24 well dishes at a final concentration of 1.5×10^5 cells/ml to which were added 2× drug treatments prepared in RPMI/FBS. All treatment concentrations were tested in duplicate. The final DMSO concentration for all treatments or vehicle control cultures was 0.1%. At four days post-infection culture fluid samples were collected for HIV-1 p24 core antigen quantitation to determine antiviral effects. Linear regression analysis was used to calculate the drug concentration necessary to inhibit 90% (inhibitory concentration 90, IC90) of non-drug treated p24 antigen production.

MF-delavirdine (P236L) = experiment: as above; assay type: cell-based; details: Human immunodeficiency virus 1, MT4, 96 h, read-out: MF-delavirdine (P236L) IC90 (μM)
Description: as §1

Structure (SMILES)	IC90 (IIIB-WT) [nM]	IC90 (MF-delavirdine (P236L)) [µM]
CSc1cc(N)nc(S[C@@H](C)c2cc3c(C)coc3cn2)n1 [Compound #290, (S)-(-)-4-Amino-6-methylthio-2-(1-(3-methylfuro[2,3-c]pyridine-5-yl)ethyl)thio-pyrimidine]	4	0.02
CSc1cc(N)nc(S[C@@H](C)c2cc3ccoc3cn2)n1 [Compound #1]	8	0.02
